Measurements published in US20040192641A1, “Special preparation of anticancer drugs made by novel nanotechnology” (priority 2003, published 2004).

Legend:
[1] = system: Human leukemia cells (HL-60); experiment: Apoptosis of cancer cells (HL-60); format: cell-based
Procedure: Human leukemia cells (HL-60) were grown in RPMI Medium 1640 supplemented with 10% (v/v) heat-inactivated FBS (56° C. for 30 min) at 37° C. in a humidified 95% air/5% CO2 atmosphere. Cells were seeded at a level of 2×10^5 cells/ml. Cells were allowed to attain a maximum density of 1.2×10^6 cells/ml before being passed by dilution into fresh medium to a concentration of 2×10^5 cells/ml.
Apoptosis determined by the following process: Cell pellets containing 5×10^6 cells were fixed with 2.5% glutaraldehyde in cacodylate buffer (pH 7.4), dehydrated through graded alcohol, and infiltrated with LX-112 epoxy resin. After overnight polymerization at 60° C. 1-μm sections were cut with glass knives using a LKB Nova microtome. The sections were stained with 1% toluidine blue and coverslipped.
DNA electrophoresis: Untreated and treated HL-60 cells collected by centrifugation, washed in phosphate buffered saline and re-suspended at a concentration of 5×10^6 cells and 0.1% RNase A. The mixture was incubated at 37° C. for 30 min and then incubated for an additional 30 min at 37° C. with 1 ml protease K. Buffer was added and 25 μl of the tube content transferred to the Horizontal 1.5% agarose gel electrophoresis was performed at 2 V/cm. DNA in gels visualized under UV light after staining with ethidium Bromide (5 μg/ml).
DNA fragmentation assays: DNA cleavage was performed, quantitation of fractional solubilized DNA by diphenylamine assay and the percentage of cells harboring fragmented DNA determined by in labeling techniques. For the diphenylamine assay, 5×10^6 cells were lysed in 0.5 mL lysis buffer (5 mmol/L Tris-HCl, 20 mmol/L DTA, and 0.5% Triton X-100, pH 8.0) at 4° C. Lysates were centrifuged (15,000 g) for separation of high molecular weight DNA (pellet) and DNA cleavage products (supernatant). DNA was precipitated with 0.5 N perchloric acid and quantitated using diphenylamine reagent. The cell cycle distribution was determined 4 hours after addition of drug and represents mean±SD of 5 independent experiments.
Human promyelocytic leukemia cells (HL-60) were grown in RPMI Medium 1640 supplemented with 10% (v/v) heat-inactivated FBS (56° C. for 30 min) at 37° C. in a humidified 95% air/5% CO2 atmosphere. Cells were seeded at a level of 2×10^5 cells/ml. Cells were allowed to attain a maximum density of 1.2×10^6 cells/ml before being passed by dilution into fresh medium to a concentration of 2×10^5 cells/ml. Apoptosis determined by the following process: Cell pellets containing 5×10^6 cells ere fixed with 2.5% glutaraldehyde in cacodylate buffer (pH 7.4), dehydrated through graded alcohol, and infiltrated with LX-112 epoxy resin. After overnight polymerization at 60° C. 1-μm sections were cut with glass knives using a LKB Nova microtome. The sections were stained with 1% toluidine blue and coverslipped. […]
DNA fragmentation assays: DNA cleavage was performed, quantitation of fractional solubilized DNA by diphenylamine assay and the percentage of cells harboring fragmented DNA determined by in labeling techniques. […] DNA was precipitated with 0.5N perchloric acid and quantitated using diphenylamine reagent. […]

Subacute toxicity test = format: in vivo; conditions: 50 times the clinical dose, continually for two months
[2] = system: oral epidermoid carcinoma (KB); experiment: Inhibition of tumor cell proliferation, KB; format: cell-based, human; conditions: 72 hours; for Inhibition (%): 50 ng/ml
Procedure: Human tumor cell lines: Hela leukemia HL-60, malignant melanocarcinoma B16, oral epidermoid carcinoma (KB), lung carcinoma (A549), breast carcinoma MCF-7, adenocarcinoma of stomach.
(§1) Animal tumor cell lines: Walker carcinoma, LLC-WRC-256, malignant melanoma (RMMI 1846), 3T3, and S-180 sarcoma (CCRF-180). All lines were routinely cultured in the RPMI1640 medium supplemented 20% fetal calf serum. The experiment was carried out in 96 microplate, each well had 5×10^5 cells and given desired concentration of 1 μg/ml (1×10^−6 g/ml) drug. Then the plate was incubated at 37° C. in an atmosphere of humidified air enriched with 5 percent carbon dioxide for 72 hours.
Inhibition percent rate of tumor cell proliferation was obtained according to the bellow formula. [formula]
as §1, with “hours. Concentration of CUR or PK-CUR-NP is 50ng/ml.” for “hours.”
as §1, with “hours. Concentration of ELE or PK-ELE-NP is 50 ng/ml.” for “hours.”
Animal tumor cell lines: Walker carcinoma, LLC-WRC-256, malignant melanoma (RMMI 1846), 3T3, and S-180 sarcoma (CCRF-180). All lines were routinely cultured in the RPMI1640 medium supplemented 20% fetal calf serum. […]

Row | Compound | Apoptosis (%) ([1]; concentration not given) | subacute toxicity: side effects (Subacute toxicity test) | Inhibition (%) [2] [%] | inhibition at 1 µg/mL ([2]; Homo sapiens, 1 μg/ml) [%] | Apoptosis (%) ([1]; Concentration 20 μm) | Apoptosis (%) ([1]; Example 59)
1 | CC[C@@]1(O)C(=O)OCc2c1cc1n(c2=O)Cc2cc3ccccc3nc2-1 [CPT, Camptothecin] | 65.8 ± 9.8 | no side effects had been observed | – | – | – | –
2 | C=C1C[C@@]2(O)O[C@@]3(C[C@H]2C(C)C)[C@@H](C)CC[C@@H]13 [CUR, Curcumol] | 68.3 ± 7.8 | no side effects had been observed | 60.8 ± 9.1 | – | – | –
3 | COC(=O)C[C@](O)(CCCC(C)(C)O)C(=O)O[C@@H]1C(OC)=C[C@]23CCCN2CCc2cc4c(cc2[C@H]13)OCO4 [HHT, Homoharringtonine] | – | – | – | 80 ± 8.5 | 68.3 ± 7.6 | 68.3 ± 7.6
4 | Eelemene | 69.2 ± 9.1 | no side effects had been observed | 60.2 ± 13.2 | – | – | –
